Source: patent US9388123B2, “LSD1-selective inhibitor having lysine structure” (KYOTO UNIVERSITY, priority 2012, dated 2016)
Counter-ions that a name gives are not always drawn.

Columns and labels:
SH-SY5Y cells = experiment: Cancer cell growth inhibition evaluation (MTT assay); type: cell-based; conditions: Homo sapiens, MTT, read-out: GI50 (μM) SH-SY5Y
Method: (§1) Evaluation was performed by measuring the inhibitory activities of a compound against the growth of a human cervical cancer-derived cell line, HeLa cells, and a human neuroblastoma cell line, SH-SY5Y cells. Details thereof are shown below. […] This assay involves, as a principle thereof, measuring an absorbance at the time of color development through a reaction of NADH, which is contained in the mitochondria of viable cells, and MTT to measure the amount of NADH. The assay was performed by the following procedure. […] After the culture, a compound was added. Then, the cells were cultured for an additional 48 hours, and then 5 mg/ml MTT liquid was added at 10 μl per well. The cells were cultured for an additional 3 hours in a CO2 incubator. A solubilization solution (0.04 mol/l hydrochloric acid-isopropanol) was added at 100 μl per well and the mixture was vigorously vortexed. After that, an absorbance at 560 nm was measured with Fusion-aFP (manufactured by PerkinElmer) and the amount of viable cells was determined.

HeLa cells = experiment: as above; type: cell-based; conditions: Homo sapiens; 48 hours with compound, MTT; read-out: GI50 (μM) HeLa
Method: as §1

LSD1 = biological target: T1, LSD1 (Homo sapiens, UniProt O60341); experiment: LSD1 inhibition test (peroxidase-coupled absorbance assay); type: biochemical; conditions: 25° C., 30 minutes, histone H3-lysine 4 dimethyl peptide
T1 construct: five histidine residues added to the N-terminus of full-length LSD1 (1-851aa); 5xHis (five histidine residues) (N); made in house; host or cells: Escherichia coli

| SMILES | melting point [°C] | GI50 (SH-SY5Y cells) [µM] | GI50 (HeLa cells) [µM] | IC50 (LSD1) [µM] |
| --- | --- | --- | --- | --- |
| CC(C)(C)c1ccc(C(=O)N[C@@H](CCCCNC2CC2c2ccccc2)C(=O)NCc2ccccc2)cc1 (stereo partly drawn) (as salt: hydrochloride) [Example 5, 2-[N-(4-tert-Butylbenzenecarbonyl)]amino-6-(trans-2-phenylcyclopropan-1-amino)-N-benzylhexanamide Hydrochloride] | 101 to 103 | – | – | – |
| O=C(N[C@@H](CCCCNC1CC1c1ccccc1)C(=O)NCc1ccccc1)c1ccc(Cl)cc1 (stereo partly drawn) (as salt: hydrochloride) [Example 6, 2-[N-(4-Chlorobenzenecarbonyl)]amino-6-(trans-2-phenylcyclopropan-1-amino)-N-benzylhexanamide Hydrochloride] | 107 to 109 | – | – | – |
| O=C(N[C@@H](CCCCNC1CC1c1ccccc1)C(=O)NCc1ccccc1)c1ccc(F)cc1 (stereo partly drawn) (as salt: hydrochloride) [Example 7, 2-[N-(4-Fluorobenzenecarbonyl)]amino-6-(trans-2-phenylcyclopropan-1-amino)-N-benzylhexanamide Hydrochloride] | 90 to 91 | – | – | – |
| O=C(N[C@@H](CCCCNC1CC1c1ccccc1)C(=O)NCc1ccccc1)c1ccc(-c2ccccc2)cc1 (stereo partly drawn) (as salt: hydrochloride) [Example 8, 2-[N-(4-Phenylbenzenecarbonyl)]amino-6-(trans-2-phenylcyclopropan-1-amino)-N-benzylhexanamide Hydrochloride] | 143 to 146 | – | – | – |
| NC1CC1c1ccccc1 (stereo not drawn) [Comp. Ex. 1, trans-2-Phenylcyclopropylamine, reference compound] | – | 503 | > 500 | – |
| CC(C)(C)OC(=O)N[C@@H](CCCCNC1CC1c1ccccc1)C(=O)NCc1ccccc1 (stereo partly drawn) [Example 2, 2-(N-tert-Butoxycarbonyl)amino-6-(trans-2-phenylcyclopropan-1-amino)-N-benzylhexanamide] | – | – | – | 1.2 |
| N[C@@H](CCCCNC1CC1c1ccccc1)C(=O)NCc1ccccc1 (stereo partly drawn) [Example 3, 2-Amino-6-(trans-2-phenylcyclopropan-1-amino)-N-benzylhexanamide Dihydrochloride] | – | – | – | 0.06 |
| Cc1ccc(C(=O)N[C@@H](CCCCNC2CC2c2ccccc2)C(=O)NCc2ccccc2)cc1 (stereo partly drawn) [Example 4, 2-[N-(4-Methylbenzenecarbonyl)]amino-6-(trans-2-phenylcyclopropan-1-amino)-N-benzylhexanamide Trifluoroacetate] | – | – | – | 0.44 |
| CC(C)(C)c1ccc(C(=O)N[C@@H](CCCCNC2CC2c2ccccc2)C(=O)NCc2ccccc2)cc1 (stereo partly drawn) [Example 5, 2-[N-(4-tert-Butylbenzenecarbonyl)]amino-6-(trans-2-phenylcyclopropan-1-amino)-N-benzylhexanamide Hydrochloride] | – | 4.8 | 12 | 0.79 |
| O=C(N[C@@H](CCCCNC1CC1c1ccccc1)C(=O)NCc1ccccc1)c1ccc(Cl)cc1 (stereo partly drawn) [Example 6, 2-[N-(4-Chlorobenzenecarbonyl)]amino-6-(trans-2-phenylcyclopropan-1-amino)-N-benzylhexanamide Hydrochloride] | – | 11 | 13 | 0.2 |
| O=C(N[C@@H](CCCCNC1CC1c1ccccc1)C(=O)NCc1ccccc1)c1ccc(F)cc1 (stereo partly drawn) [Example 7, 2-[N-(4-Fluorobenzenecarbonyl)]amino-6-(trans-2-phenylcyclopropan-1-amino)-N-benzylhexanamide Hydrochloride] | – | – | – | 0.25 |
| O=C(N[C@@H](CCCCNC1CC1c1ccccc1)C(=O)NCc1ccccc1)c1ccc(C(F)(F)F)cc1 (stereo partly drawn) [Example 9, 2-[N-(4-Trifluoromethylbenzenecarbonyl)]amino-6-(trans-2-phenylcyclopropan-1-amino)-N-benzylhexanamide Hydrochloride] | – | 5.4 | 13 | 0.38 |
| NCCNC(=O)c1cccc(C(=O)N[C@@H](CCCCNC2CC2c2ccccc2)C(=O)NCc2ccccc2)c1 (stereo partly drawn) [Example 10, 2-{3-[(2-Amino)ethylcarbamoyl]benzenecarbonylamino)-6-(trans-2-phenylcyclopropan-1-amino)-N-benzylhexanamide Ditrifluoroacetate] | – | – | – | 0.1 |
| O=C(N[C@@H](CCCCNC1CC1c1ccccc1)C(=O)NCc1ccccc1)c1cccc(C(=O)N2CCNCC2)c1 (stereo partly drawn) [Example 11, 2-[3-(Piperazine-1-carbonyl)benzenecarbonylamino}-6-(trans-2-phenylcyclopropan-1-amino)-N-benzylhexanamide Ditrifluoroacetate] | – | – | – | 0.25 |
| Cc1ccc(CNC(=O)[C@H](CCCCNC2CC2c2ccccc2)NC(=O)c2ccc(-c3ccccc3)cc2)cc1 (stereo partly drawn) [Example 12, 2-[N-(4-Phenylbenzenecarbonyl)]amino-6-(trans-2-phenylcyclopropan-1-amino)-N-(4-methylbenzyl)hexanamide Hydrochloride] | – | 3.5 | 4.4 | 0.6 |
| O=C(N[C@@H](CCCCNC1CC1c1ccccc1)C(=O)NCc1ccc(F)cc1)c1ccc(-c2ccccc2)cc1 (stereo partly drawn) [Example 13, 2-[N-(4-Phenylbenzenecarbonyl)]amino-6-(trans-2-phenylcyclopropan-1-amino)-N-(4-fluorobenzyl)hexanamide Hydrochloride] | – | 3.9 | 4.4 | 0.75 |
| O=C(N[C@@H](CCCCNC1CC1c1ccccc1)C(=O)NCc1ccc(-c2ccccc2)cc1)c1ccc(-c2ccccc2)cc1 (stereo partly drawn) [Example 14, 2-[N-(4-Phenylbenzenecarbonyl)]amino-6-(trans-2-phenylcyclopropan-1-amino)-N-(4-phenylbenzyl)hexanamide Hydrochloride] | – | 6.4 | 5.2 | 2.7 |
| CC(C)(C)c1ccc(CNC(=O)[C@H](CCCCNC2CC2c2ccccc2)NC(=O)c2ccc(-c3ccccc3)cc2)cc1 (stereo partly drawn) [Example 15, 2-[N-(4-Phenylbenzenecarbonyl)]amino-6-(trans-2-phenylcyclopropan-1-amino)-N-(4-tert-butylbenzyl)hexanamide Trifluoroacetate] | – | 2.7 | 4 | 1.2 |
| Cc1cccc(CNC(=O)[C@H](CCCCNC2CC2c2ccccc2)NC(=O)c2ccc(-c3ccccc3)cc2)c1 (stereo partly drawn) [Example 16, 2-[N-(4-Phenylbenzenecarbonyl)]amino-6-(trans-2-phenylcyclopropan-1-amino)-N-(3-methylbenzyl)hexanamide Hydrochloride] | – | 2.3 | 4.2 | 0.68 |
| O=C(N[C@@H](CCCCNC1CC1c1ccccc1)C(=O)NCc1cccc(F)c1)c1ccc(-c2ccccc2)cc1 (stereo partly drawn) [Example 17, 2-[N-(4-Phenylbenzenecarbonyl)]amino-6-(trans-2-phenylcyclopropan-1-amino)-N-(3-fluorobenzyl)hexanamide Hydrochloride] | – | 4.1 | 10.9 | 0.67 |
| O=C(N[C@@H](CCCCNC1CC1c1ccccc1)C(=O)NCc1cccc(-c2ccccc2)c1)c1ccc(-c2ccccc2)cc1 (stereo partly drawn) [Example 18, 2-[N-(4-Phenylbenzenecarbonyl)]amino-6-(trans-2-phenylcyclopropan-1-amino)-N-(3-phenylbenzyl)hexanamide Hydrochloride] | – | 3.8 | 9.7 | 0.98 |
